Reference: US20220117968A1, “THIENO[2,3-D)PYRIMIDINES AND BENZOFURO(3,2-D)PYRIMIDINES AS ANTIMICROBIAL AGENTS” (Saint Louis University, priority 2017, published 2022)
≈ marks a conversion by molar mass, not a printed value. Counter-ions that a name gives are not always drawn. Like-named read-outs stand apart in the source and are kept apart here.

System: WT Mtb Erdman strain
Test: Microplate Alamar Blue Assay (MABA)
Type: cell-based
Settings: Mycobacterium tuberculosis; for MIC50: read-out: MABA MIC50; for MIC90: read-out: MABA MIC90
[1] = concentration that inhibits mycobacterial survival by 50%, Middlebrook 7H9 media, 7 days at 37° C., resazurin 24 hours
[2] = concentration that inhibits mycobacterial survival by 90%, Middlebrook 7H9 media, 7 days at 37° C., resazurin 24 hours

CCc1nc(NCCCC(F)(F)F)c2c(C)csc2n1 [Example 1700, 2-Ethyl-5-methyl-N-(4,4,4-trifluorobutyl)thieno[2,3-d]pyrimidin-4-amine]
MIC50 [1]: 26.8 µM (≈ 8.13 µg/mL)
MIC90 [2]: 30.7 µM (≈ 9.31 µg/mL)

Cc1nc(NCc2ccccc2)c2c(C)c(C)sc2n1 [Example 0795, N-Benzyl-2,5,6-trimethylthieno[2,3-d]pyrimidin-4-amine]
MIC50 [1]: 25.4 µM (≈ 7.2 µg/mL)
MIC90 [2]: 28.4 µM (≈ 8.05 µg/mL)

CCc1nc(NC2CC2)c2cc(C3CC3)sc2n1 [Example 1161, N,6-Dicyclopropyl-2-ethyl-thieno[2,3-d]pyrimidin-4-amine]
MIC50 [1]: 31.3 µM (≈ 8.12 µg/mL)
MIC90 [2]: 36.3 µM (≈ 9.42 µg/mL)

Cc1nc(NCCc2ccccc2)c2c(C)c(C)sc2n1 [Example 0798, 2,5,6-Trimethyl-N-(2-phenylethyl)thieno[2,3-d]pyrimidin-4-amine]
MIC50 [1]: 27.4 µM (≈ 8.15 µg/mL)
MIC90 [2]: 32.9 µM (≈ 9.79 µg/mL)

Cc1cc2c(NC3CC3)nc(C(F)(F)C(F)(F)F)nc2s1 [Example 1542, N-Cyclopropyl-6-methyl-2-(perfluoroethyl)thieno[2,3-d]pyrimidin-4-amine]
MIC50 [1]: 5.28 µM (≈ 1.71 µg/mL)
MIC90 [2]: 10.1 µM (≈ 3.27 µg/mL)

CCc1nc(NCCCN(C)C)c2cc(C)sc2n1 [Example 0935, [3-({2-ethyl-6-methylthieno[2,3-d]pyrimidin-4-yl}amino)propyl]dimethylamine]
MIC50 [1]: > 50 µM
MIC90 [2]: > 50 µM

CCc1nc(NCCCc2ccccc2)c2ccsc2n1 [Example 1305, 2-Ethyl-N-(3-phenylpropyl)thieno[2,3-d]pyrimidin-4-amine]
MIC50 [1]: 0.113 µM (≈ 0.0336 µg/mL)
MIC90 [2]: 0.145 µM (≈ 0.0431 µg/mL)

Cc1cc2c(NCCCc3ccccc3)nc(C(F)(F)C(F)(F)F)nc2s1 [Example 1538, 6-Methyl-2-(1,1,2,2,2-pentafluoroethyl)-N-(3-phenylpropyl)thieno[2,3-d]pyrimidin-4-amine]
MIC50 [1]: 0.597 µM (≈ 0.24 µg/mL)
MIC90 [2]: 1.1 µM (≈ 0.442 µg/mL)

CCc1nc(NCc2ccccc2)c2cc(C)sc2n1 [Example 1303, N-Benzyl-2-ethyl-6-methylthieno[2,3-d]pyrimidin-4-amine]
MIC50 [1]: 10.6 µM (≈ 3 µg/mL)
MIC90 [2]: 20.8 µM (≈ 5.89 µg/mL)

Cc1cc2c(NC3CC3)nc(C(F)(F)F)nc2s1 [Example 1540, N-Cyclopropyl-6-methyl-2-(trifluoromethyl)thieno[2,3-d]pyrimidin-4-amine]
MIC50 [1]: 1.81 µM (≈ 0.495 µg/mL)
MIC90 [2]: 4.79 µM (≈ 1.31 µg/mL)

CCc1nc(NC2CC2)c2oc3ccccc3c2n1 [Example 1142, N-cyclopropyl-2-ethyl-benzofuro[3,2-d]pyrimidin-4-amine]
MIC50 [1]: 8.37 µM (≈ 2.12 µg/mL)
MIC90 [2]: 24.8 µM (≈ 6.28 µg/mL)

CCc1nc(NC(C(=O)O)C(C)C)c2cc(C)sc2n1 (stereo not shown) [Example 0851, 2-({2-ethyl-6-methylthieno[2,3-d]pyrimidin-4-yl}amino)-3-methylbutanoic acid]
MIC50 [1]: > 50 µM
MIC90 [2]: > 50 µM

FC(F)(F)CCCNc1nc(C(F)(F)C(F)(F)F)nc2sccc12 [Example 1549, 2-(Perfluoroethyl)-N-(4,4,4-trifluorobutyl)thieno[2,3-d]pyrimidin-4-amine]
MIC50 [1]: 22.3 µM (≈ 8.46 µg/mL)
MIC90 [2]: 24.2 µM (≈ 9.18 µg/mL)

Cc1cc2c(NCCCC(F)(F)F)nc(C(F)(F)F)nc2s1 [Example 1551, 6-Methyl-N-(4,4,4-trifluorobutyl)-2-(trifluoromethyl)thieno[2,3-d]pyrimidin-4-amine]
MIC50 [1]: 0.846 µM (≈ 0.29 µg/mL)
MIC90 [2]: 3.88 µM (≈ 1.33 µg/mL)

CCc1nc(NC2CC2)c2cc(Br)sc2n1 [Example 1146, 6-Bromo-N-cyclopropyl-2-ethyl-thieno[2,3-d]pyrimidin-4-amine]
MIC50 [1]: 5.98 µM (≈ 1.78 µg/mL)
MIC90 [2]: 13.8 µM (≈ 4.12 µg/mL)

CCc1nc(NC2CC2)c2cc(Cl)sc2n1 [Example 1181, 6-Chloro-N-cyclopropyl-2-ethyl-thieno[2,3-d]pyrimidin-4-amine]
MIC50 [1]: 3.06 µM (≈ 0.776 µg/mL)
MIC90 [2]: 7.64 µM (≈ 1.94 µg/mL)

CCc1nc(NCc2ccccn2)c2cc(C)sc2n1 [Example 1308, 2-Ethyl-6-methyl-N-(2-pyridylmethyl)thieno[2,3-d]pyrimidin-4-amine]
MIC50 [1]: 21.6 µM (≈ 6.14 µg/mL)
MIC90 [2]: 31.6 µM (≈ 8.99 µg/mL)

CCc1nc(NCCCc2ccccc2)c2cc(C)sc2n1 [Example 1023, 2-Ethyl-6-methyl-N-(3-phenylpropyl)thieno[2,3-d]pyrimidin-4-amine]
MIC50 [1]: 0.0266 µM (≈ 0.00828 µg/mL)
MIC90 [2]: 0.108 µM (≈ 0.0336 µg/mL)

Cc1cc2c(NC3CC3)nc(-c3ccccc3)nc2s1 [Example 1062, N-Cyclopropyl-6-methyl-2-phenyl-thieno[2,3-d]pyrimidin-4-amine]
MIC50 [1]: 2.88 µM (≈ 0.81 µg/mL)
MIC90 [2]: 6.01 µM (≈ 1.69 µg/mL)

CCCCNc1nc(CC)nc2c1oc1ccccc12 [Example 1301, N-Butyl-2-ethylbenzofuro[3,2-d]pyrimidin-4-amine]
MIC50 [1]: 3.8 µM (≈ 1.02 µg/mL)
MIC90 [2]: 8.97 µM (≈ 2.42 µg/mL)

Cc1nc(NCCCc2ccccc2)c2oc3ccccc3c2n1 [Example 1299, 2-Methyl-N-(3-phenylpropyl)benzofuro[3,2-d]pyrimidin-4-amine]
MIC50 [1]: 0.128 µM (≈ 0.0406 µg/mL)
MIC90 [2]: 0.188 µM (≈ 0.0597 µg/mL)

Cc1cc2c(NC3CC3)nc(Cc3ccc(F)cc3)nc2s1 [Example 1063, N-Cyclopropyl-2-[(4-fluorophenyl)methyl]-6-methyl-thieno[2,3-d]pyrimidin-4-amine]
MIC50 [1]: 21 µM (≈ 6.58 µg/mL)
MIC90 [2]: 41.7 µM (≈ 13.1 µg/mL)

FC(F)(F)CCCNc1nc(C(F)(F)F)nc2sccc12 [Example 1548, N-(4,4,4-Trifluorobutyl)-2-(trifluoromethyl)thieno[2,3-d]pyrimidin-4-amine]
MIC50 [1]: 12.3 µM (≈ 4.05 µg/mL)
MIC90 [2]: 13.7 µM (≈ 4.51 µg/mL)

Cc1cccc(-c2nc(NCCCC(F)(F)F)c3c(C)csc3n2)n1 [Example 1711, 5-methyl-2-(6-methylpyridin-2-yl)-N-(4,4,4-trifluorobutyl)thieno[2,3-d]pyrimidin-4-amine]
MIC50 [1]: 6.48 µM (≈ 2.37 µg/mL)
MIC90 [2]: 19.4 µM (≈ 7.11 µg/mL)

CCc1nc(NC2CC2)c2cc(-c3ccccc3)sc2n1 [Example 1150, N-Cyclopropyl-2-ethyl-6-phenyl-thieno[2,3-d]pyrimidin-4-amine]
MIC50 [1]: 21.1 µM (≈ 6.23 µg/mL)
MIC90 [2]: 23.1 µM (≈ 6.82 µg/mL)

Cc1cccc(-c2nc(NCCCc3ccccc3)c3c(C)csc3n2)n1 [Example 1709, 5-methyl-2-(6-methylpyridin-2-yl)-N-(3-phenylpropyl)thieno[2,3-d]pyrimidin-4-amine]
MIC50 [1]: 2.56 µM (≈ 0.959 µg/mL)
MIC90 [2]: 19.7 µM (≈ 7.38 µg/mL)

CCCCNc1nc(CC)nc2sccc12 [Example 1176, N-butyl-2-ethyl-thieno[2,3-d]pyrimidin-4-amine]
MIC50 [1]: 3.8 µM (≈ 0.894 µg/mL)
MIC90 [2]: 14.4 µM (≈ 3.39 µg/mL)

Cc1nc(Nc2ccccc2)c2c(C)c(C)sc2n1 [Example 0797, 2,5,6-Trimethyl-N-phenylthieno[2,3-d]pyrimidin-4-amine]
MIC50 [1]: > 50 µM
MIC90 [2]: > 50 µM

CCCCNc1nc(C)nc2sc(C)c(C)c12 [Example 0796, N-butyl-2,5,6-trimethylthieno[2,3-d]pyrimidin-4-amine trifluoroacetate]
MIC50: > 50 µM
MIC90: > 50 µM

CCc1nc(NCCCC(F)(F)F)c2cc(C)sc2n1 [Example 1020, 2-Ethyl-6-methyl-N-(4,4,4-trifluorobutyl)thieno[2,3-d]pyrimidin-4-amine]
MIC50 [1]: 0.116 µM (≈ 0.0352 µg/mL)
MIC90 [2]: 0.163 µM (≈ 0.0494 µg/mL)

CCCCNc1nc(C(F)(F)C(F)(F)F)nc2sc(C)cc12 [Example 1546, N-Butyl-6-methyl-2-(perfluoroethyl)thieno[2,3-d]pyrimidin-4-amine]
MIC50 [1]: 11.2 µM (≈ 3.8 µg/mL)
MIC90 [2]: 12.4 µM (≈ 4.21 µg/mL)

FC(F)(F)C(F)(F)c1nc(NC2CC2)c2ccsc2n1 [Example 1543, N-Cyclopropyl-2-(perfluoroethyl)thieno[2,3-d]pyrimidin-4-amine]
MIC50 [1]: 26.9 µM (≈ 8.32 µg/mL)
MIC90 [2]: 29.6 µM (≈ 9.15 µg/mL)

CCc1nc(NCCCc2ccccc2)c2c(C)csc2n1 [Example 1698, 2-Ethyl-5-methyl-N-(3-phenylpropyl)thieno[2,3-d]pyrimidin-4-amine]
MIC50 [1]: 0.515 µM (≈ 0.16 µg/mL)
MIC90 [2]: 3.67 µM (≈ 1.14 µg/mL)

FC(F)(F)c1nc(NCCCc2ccccc2)c2ccsc2n1 [Example 1537, N-(Phenylpropyl)-2-(trifluoromethyl)thieno[2,3-d]pyrimidin-4-amine]
MIC50 [1]: 0.439 µM (≈ 0.148 µg/mL)
MIC90 [2]: 1.14 µM (≈ 0.385 µg/mL)

CCc1nc(NC2CC2)c2cc(C(F)(F)F)sc2n1 [Example 1177, N-Cyclopropyl-2-ethyl-6-(trifluoromethyl)thieno[2,3-d]pyrimidin-4-amine]
MIC50 [1]: 30.8 µM (≈ 8.85 µg/mL)
MIC90 [2]: > 50 µM

CCc1nc(NCCc2ccccc2)c2cc(C)sc2n1 [Example 1306, 2-Ethyl-6-methyl-N-phenethylthieno[2,3-d]pyrimidin-4-amine]
MIC50 [1]: 0.125 µM (≈ 0.0372 µg/mL)
MIC90 [2]: 0.183 µM (≈ 0.0544 µg/mL)

Cc1nc(NC2CC2)c2oc3ccccc3c2n1 [Example 1151, N-Cyclopropyl-2-methyl-benzofuro[3,2-d]pyrimidin-4-amine]
MIC50 [1]: 11.1 µM (≈ 2.66 µg/mL)
MIC90 [2]: 33.9 µM (≈ 8.11 µg/mL)

C=C(C)c1cc2c(NC3CC3)nc(CC)nc2s1 [Example 1154, N-Cyclopropyl-2-ethyl-6-(prop-1-en-2-yl)thieno[2,3-d]pyrimidin-4-amine]
MIC50 [1]: 45.9 µM (≈ 11.9 µg/mL)
MIC90 [2]: > 50 µM

CCCCNc1nc(C(F)(F)F)nc2sc(C)cc12 [Example 1544, N-Butyl-6-methyl-2-(trifluoromethyl)thieno[2,3-d]pyrimidin-4-amine]
MIC50 [1]: 1.14 µM (≈ 0.33 µg/mL)
MIC90 [2]: 3.69 µM (≈ 1.07 µg/mL)

CCc1nc(NCCc2ccc(Cl)cc2Cl)c2cc(C)sc2n1 [Example 1307, N-[2-(2,4-Dichlorophenyl)ethyl]-2-ethyl-6-methylthieno[2,3-d]pyrimidin-4-amine]
MIC50 [1]: 0.526 µM (≈ 0.193 µg/mL)
MIC90 [2]: 1.18 µM (≈ 0.432 µg/mL)

CCc1nc(NCc2ccc(Cl)cc2)c2cc(C)sc2n1 [Example 1302, N-(4-Chlorobenzyl)-2-ethyl-6-methylthieno[2,3-d]pyrimidin-4-amine]
MIC50 [1]: 2.63 µM (≈ 0.836 µg/mL)
MIC90 [2]: 5.54 µM (≈ 1.76 µg/mL)

FC(F)(F)C(F)(F)c1nc(NCCCc2ccccc2)c2ccsc2n1 [Example 1539, 2-(1,1,2,2,2-Pentafluoroethyl)-N-(3-phenylpropyl)thieno[2,3-d]pyrimidin-4-amine]
MIC50 [1]: 4.9 µM (≈ 1.9 µg/mL)
MIC90 [2]: 7.36 µM (≈ 2.85 µg/mL)

CCc1nc(NCCCc2ccccc2)c2oc3ccccc3c2n1 [Example 1300, 2-Ethyl-N-(3-phenylpropyl)benzofuro[3,2-d]pyrimidin-4-amine]
MIC50 [1]: 0.164 µM (≈ 0.0544 µg/mL)
MIC90 [2]: 0.389 µM (≈ 0.129 µg/mL)

CCc1nc(Nc2ccccc2)c2cc(C)sc2n1 [Example 1304, 2-Ethyl-6-methyl-N-phenylthieno[2,3-d]pyrimidin-4-amine]
MIC50 [1]: 25.2 µM (≈ 6.79 µg/mL)
MIC90 [2]: 41.6 µM (≈ 11.2 µg/mL)
